test system: HCC1954 and CAMA1 cells; assay: Cell growth in 3D culture after shRNA knockdown; assay type: cell-based, human; details: vs shRNA control

Colony size / cell growth in 3D culture, colonies were much smaller:
#5149 shNEU3: NEU3 shRNA hairpin, SEQ ID NO: 182 (CCGGAGTGACAACATGCTCCTTCAACTCGAGTTGAAGGAGCATGTTGTCACTTTTTT)
#2969 shPPFIA1: PPFIA1 shRNA hairpin, SEQ ID NO: 192 (CCGGGAGGAGATTGAAAGTCGAGTTCTCGAGAACTCGACTTTCAATCTCCTCTTTTT)
#38160 shFGF3: FGF3 shRNA hairpin, SEQ ID NO: 190 (CCGGGAGCTGGGCTATAATACGTATCTCGAGATACGTATTATAGCCCAGCTCTTTTTG)
